From patent publication US20110318397A1, “METHOD FOR PREPARING HIGH PURITY GINSENOSIDE RD USING LACTOBACILLUS CASEI AND COSMETIC COMPOSITION FOR ANTI-WRINKLE COMPRISING THE HIGH PURITY GINSENOSIDE RD” (priority 2010, published 2011)
Read-outs that look alike come from different tables or passages of the source.

What was measured:
[1] = test system: Human fibroblasts (WI-38); assay: Collagen synthesis, procollagen type-I C-peptide kit; assay type: cell-based; conditions: WI-38 fibroblasts, 24 h; for collagen production as compared to the control (sample-untreated cells): 1×10^−4% (w/v) or lower
Protocol: Human fibroblasts (WI-38) that had been stored at −80° C. or in liquid nitrogen were used. The cells were uniformly placed on a 96-well plate, with 2.0×10^4 cells/well.
After culturing in MEM (FBS 5%) for 24 hours, the medium was replaced with a fresh serum-free medium and the cells were treated with gradually diluted sample. […] After treatment with the sample, the cells were further cultured for 24 hours on a 96-well plate. Then, the quantity of collagen was measured using a collagen measurement kit (Procollagen type-I C-peptide MK101, Takara).

human fibroblasts = test system: human fibroblasts
Protocol: MTT [3-(4,5-dimethylthiazol-2-yl)-2,5-diphenyltetrazolium bromide, Sigma M5655] assay was carried out to test the effect of the sample on proliferation of human fibroblasts.
The fibroblasts that had been stored at −80° C. or in liquid nitrogen were used. The cells were uniformly placed on a 96-well plate, with 2.0×10^4 cells/well. After culturing in MEM (FBS 5%) for 24 hours, the medium was replaced with a fresh serum-free medium and the cells were treated with gradually diluted sample. The samples were ginsenoside Rd and retinol. After treatment with the sample, the cells were further cultured for 24 hours on a 96-well plate. Subsequently, after adding 10 μL of MTT solution (5 mg/mL) to each well, the cells were cultured for 4 hours. After removing the medium and adding 100 μL of dimethyl sulfoxide to each well followed by shaking for 10 minutes, absorbance was measured at 540 nm using an ELISA reader.

Structure (SMILES) | collagen production as compared to the control (sample-untreated cells) [1] | cell viability (human fibroblasts) [%] | cytotoxicity (human fibroblasts) | maximum collagen production ([1]; at 1×10^−2 (w/v) or lower) [%] | cell viability (human fibroblasts; human, 24 h) [%]
CC(C)=CCC[C@](C)(O[C@@H]1O[C@H](CO)[C@@H](O)[C@H](O)[C@H]1O)[C@H]1CC[C@]2(C)[C@@H]1[C@H](O)C[C@@H]1[C@@]3(C)CC[C@H](O[C@@H]4O[C@H](CO)[C@@H](O)[C@H](O)[C@H]4O[C@@H]4O[C@H](CO)[C@@H](O)[C@H](O)[C@H]4O)C(C)(C)[C@@H]3CC[C@]12C [ginsenoside Rd] | slightly decreased collagen production | 100 | no cytotoxicity |  | 
CC(C)=CCC[C@](C)(O)[C@H]1CC[C@]2(C)[C@@H]1[C@H](O)C[C@@H]1[C@@]3(C)CC[C@H](O)C(C)(C)[C@@H]3[C@@H](O[C@@H]3O[C@H](CO)[C@@H](O)[C@H](O)[C@H]3O[C@@H]3O[C@@H](C)[C@H](O)[C@@H](O)[C@H]3O)C[C@]12C [Rg2, ginsenoside Rg2] | remarkably decreased collagen production |  |  |  | 
CC1=C(/C=C/C(C)=C/C=C/C(C)=C/CO)C(C)(C)CCC1 [Retinol, retinol, reference compound] |  |  |  | 30 | 100
